Measurements taken from US20230355608A1, “TARGETING POLYCYTHEMIA VERA (PV)-INITIATING CELLS BY BLOCKING LEUKOTRIENE BINDING TO THEIR RECEPTORS” (UNIVERSITY OF MASSACHUSETTS, priority 2020, published 2023).
Entries after “also recorded” stand apart in the source; their conditions may differ.

Experiments:
[1] = tested on: K562 cells; conditions: Yektaei-Karin et al. 2017; cited from earlier work
[2] = tested on: Ba/F3-JAK2V617F cells; test: Apoptosis assay by FACS (Annexin V and 7-AAD); format: cell-based, mouse; conditions: compared with Ba/F3 cells
Description: (§1) A mouse Ba/F3 cell line transduced with pMSCV-IRES-GFP was used as a control. Mouse JAK2V617F-GFP-expressing Ba/F3 cell line was kindly provided by Dr. Ross Levine (Human Oncology and Pathogenesis Program, Memorial Sloan-Kettering Cancer Center, New York, NY). Human JAK2V617F-expressing HEL cell line was purchased from ATCC. Cell lines were cultured in RPMI-1640 medium containing 10% FCS and 50 μmol/L 2-mercaptoethanol. Ba/F3 cell line was cultured in the medium mentioned above with 10 ng/ml IL3. C57BL/6J mice were obtained from The Jackson Laboratory.
(§2) Cell numbers were counted in duplicates by trypan blue (Sigma-Aldrich) exclusion at 24 h and 48 h, respectively. FACS analysis was applied for cell cycle test using Hoechst and Pyronin (Sigma-Aldrich) staining, and for apoptosis assay staining with Annexin V and 7-AAD (eBiosciences) according to the manufacturer's instructions. Results are expressed as the mean±SD.

[3] = tested on: JAK2V617F-expressing Ba/F3 cells; test: Cell growth, trypan blue exclusion cell count; format: cell-based, mouse; conditions: various doses (10-40 μM), 24 and 48 hours
Description: as §1, §2

[4] = tested on: Ba/F3 cells; test: Cell growth, trypan blue exclusion cell count; format: cell-based, mouse; conditions: various doses (10-40 μM), 24 and 48 hours
Description: as §1, §2

[5] = tested on: parental Ba/F3 cells; test: Cell-cycle progression by FACS (Hoechst and Pyronin); format: cell-based, mouse; conditions: parental Ba/F3 cells that do not express JAK2V617F
Description: as §1, §2

[6] = tested on: Ba/F3-JAK2V617F cells; test: as above; format: cell-based, mouse
Description: as §1, §2

[7] = tested on: HEL cells; test: Apoptosis assay by FACS (Annexin V and 7-AAD); format: cell-based, human; conditions: compared with Ba/F3 cells
Description: as §1, §2

[8] = tested on: KU812 cells; conditions: Yektaei-Karin et al. 2017; cited from earlier work
[9] = tested on: KCL22 cells; conditions: Yektaei-Karin et al. 2017; cited from earlier work
[10] = tested on: HEL cells; test: Cell-cycle progression by FACS (Hoechst and Pyronin); format: cell-based, human
Description: as §1, §2

[11] = tested on: JAK2V617F-expressing human HEL cells; test: Cell growth, trypan blue exclusion cell count; format: cell-based; conditions: various doses (10-40 μM), 24 and 48 hours
Description: as §1, §2

[12] = tested on: primary CD34+ blood cells from two CML patients; conditions: Yektaei-Karin et al. 2017; cited from earlier work
[13] = tested on: JAK2V617F-induced PV mice
Description: The bone marrow cells from donor mice, pretreated with 5-fluorouracil (5-FU), were infected with retrovirus containing pMSCV-JAK2V617F-GFP under conditions for the induction of PV as described previously, followed by transplantation of the transduced cells into C57BL/6J recipient mice.
To test this hypothesis, bone marrow cells (BM) were collected for FCM analysis after 4 months treatment.
PV model was induced in mice as follows: Bone marrow cells from 5-FU-treated (200 mg/kg) donor mice were transduced twice with JAK2V617F retrovirus in the presence of IL-3, IL-6, and stem cell factor (SCF). The recipient mice received 1,100 cGy lethal gamma irradiation (given by 2 split 550-cGy doses), followed by 2.0×10^6 cells transplantation via tail vein injection.
Hematopoietic cells were collected from peripheral blood and bone marrow of the PV mice, and red blood cells (RBCs) were eliminated using RBC lysis buffer (pH 7.4). Then the cells were stained with fluorescence-labeled antibodies (Gr−1 for neutrophils, c-kit and Sca−1 for stem cells) and subjected to FACS analysis. These antibodies were purchased from eBioscience Biotechnology. Data were acquired on a FACS Calibur flow cytometric analyzer (Becton Dickinson).
Water was used as placebo.

[14] = tested on: human CD34+ cells from Polycythemia Vera (PV) patients; conditions: Chen et al., Cancer Research 77(1):164-174; cited from earlier work
[15] = tested on: JAK2V617F-induced PV in mice; conditions: Chen et al., Cancer Research 77(1):164-174; cited from earlier work
[16] = PV mice, 150 mg/kg once a day by gavage, vs placebo
[17] = PV mice, 150 mg/kg once a day by gavage, vs placebo, from 3rd month post treatment
[18] = PV mice, 150 mg/kg once a day by gavage, vs placebo, 150 mg/kg
[19] = PV mice, after 4 months treatment, vs placebo

Which results are given for `CC(C)(O)c1ccccc1CC[C@@H](SCC1(CC(=O)[O-])CC1)c1cccc(/C=C/c2ccc3ccc(Cl)cc3n2)c1.[Na+]` [Montelukast, (R-(E))-1-(((1-(3-(2-(7-Chloro-2-quinolinyl)ethenyl)phenyl)-3-(2-(1-hydroxy-1-methylethyl)phenyl)propyl)thio)methyl)-cyclopropaneacetic acid]?
cell growth [1]: significantly reduced the growth; apoptosis [2]: more dramatic apoptosis; cell growth [3]: dose-dependent growth inhibition; cell growth [4]: dose-dependent growth inhibition; cell-cycle progression [5]: no significant cell-cycle block effect; cell-cycle progression [6]: blockade of cell-cycle progression; apoptosis [7]: more dramatic apoptosis; cell growth [8]: significantly reduced the growth; cell growth [9]: significantly reduced the growth; cell-cycle progression [10]: blockade of cell-cycle progression; cell growth [11]: dose-dependent growth inhibition; cell growth [12]: significantly reduced the growth; non GFP (GFP-) cells (FIG. 5) ([13]; PV mice vs placebo, at 10 weeks): showed a loss; GFP+ cells (FIG. 5) ([13]; PV mice vs placebo, by 6 and 10 weeks post treatment): loss of the GFP+ cells; level of PLT [13, 16]: did not significantly affect; level of RBC [13, 16]: did not significantly affect; GFP+Gr-1+ PV cell number in peripheral blood [13, 17]: increased more slowly; GFP+Gr-1+ PV cell percentage in peripheral blood [13, 17]: increased more slowly; HCT [13, 18]: had an inhibitor compound effect; HGB [13, 18]: had an inhibitor compound effect; fibrosis in bone marrow [13, 18]: efficiently relieved the fibrosis; also recorded: efficiently relieved fibrosis morphology; GFP-Gr-1+ cell number in peripheral blood ([13]; PV mice, 150 mg/kg once a day by gavage, vs placebo, normal cells, 150 mg/kg): didn't show significant difference; also recorded: did not show a significant difference; GFP+ PV cell number in BM [13, 19]: dramatic decrease; GFP+ PV cell percentage in BM [13, 19]: dramatic decrease

With `CC(c1cc2ccccc2s1)N(O)C(N)=O` (centres unmarked) [Zileuton] as the molecule, how does the “proliferation of human CD34+ cells from PV patients” value [14] read?
The value was “reducing proliferation”.

What about the “development of PV in mice” value [15] of the same molecule?
Its value is “attenuates the development of PV”.
